Measurements reported in the supplement of paper PMC10307832.

Assays:
Assay in all cases: relative viability (nuclei count vs DMSO), 5 days (fraction); higher = more cells survive
Gemcitabine + Navitoclax = compound: Nc1ccn([C@@H]2O[C@H](CO)[C@@H](O)C2(F)F)c(=O)n1 [Gemcitabine] + CC1(C)CCC(c2ccc(Cl)cc2)=C(CN2CCN(c3ccc(C(=O)NS(=O)(=O)c4ccc(N[C@H](CCN5CCOCC5)CSc5ccccc5)c(S(=O)(=O)C(F)(F)F)c4)cc3)CC2)C1 [Navitoclax] (partner 0.5 µM)
How it was run: (§1)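 Lung cancer cell lines were seeded in 1536-well plates and dosed by pin tool the next day, with either a single drug or a fixed anchor-drug dose combined with five library-drug doses (not always all listed) spaced in √10 steps. Five days later, one step fixed the cells and stained their nuclei (final 0.05% Triton X-100, 1% formaldehyde, 1 ug/ml Hoechst), and nuclei were counted on 4× images. Relative viability is the nuclei count in treated wells divided by the count in vehicle wells, and each value is the median of duplicate plates.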

Gemcitabine + Luminespib = compound: Nc1ccn([C@@H]2O[C@H](CO)[C@@H](O)C2(F)F)c(=O)n1 [Gemcitabine] + CCNC(=O)c1noc(-c2cc(C(C)C)c(O)cc2O)c1-c1ccc(CN2CCOCC2)cc1 [Luminespib] (partner 0.01 µM)
How it was run: as §1

Gemcitabine + Foretinib = compound: Nc1ccn([C@@H]2O[C@H](CO)[C@@H](O)C2(F)F)c(=O)n1 [Gemcitabine] + COc1cc2c(Oc3ccc(NC(=O)C4(C(=O)Nc5ccc(F)cc5)CC4)cc3F)ccnc2cc1OCCCN1CCOCC1 [Foretinib] (partner 0.25 µM)
How it was run: as §1

Gemcitabine + Linsitinib = compound: Nc1ccn([C@@H]2O[C@H](CO)[C@@H](O)C2(F)F)c(=O)n1 [Gemcitabine] + C[C@]1(O)C[C@@H](c2nc(-c3ccc4ccc(-c5ccccc5)nc4c3)c3c(N)nccn32)C1 [Linsitinib] (partner 1 µM)
How it was run: as §1

| Cell Line | relative viability (Gemcitabine + Navitoclax; first compound 0.001 µM) | relative viability (Gemcitabine + Navitoclax; first compound 0.003162 µM) | relative viability (Gemcitabine + Navitoclax; first compound 0.01 µM) | relative viability (Gemcitabine + Navitoclax; first compound 0.03162 µM) | relative viability (Gemcitabine + Navitoclax; first compound 0.1 µM) | relative viability (Gemcitabine + Luminespib; first compound 0.001 µM) | relative viability (Gemcitabine + Luminespib; first compound 0.003162 µM) | relative viability (Gemcitabine + Luminespib; first compound 0.01 µM) | relative viability (Gemcitabine + Luminespib; first compound 0.03162 µM) | relative viability (Gemcitabine + Luminespib; first compound 0.1 µM) | relative viability (Gemcitabine + Foretinib; first compound 0.001 µM) | relative viability (Gemcitabine + Foretinib; first compound 0.003162 µM) | relative viability (Gemcitabine + Foretinib; first compound 0.01 µM) | relative viability (Gemcitabine + Foretinib; first compound 0.03162 µM) | relative viability (Gemcitabine + Foretinib; first compound 0.1 µM) | relative viability (Gemcitabine + Linsitinib; first compound 0.001 µM) | relative viability (Gemcitabine + Linsitinib; first compound 0.003162 µM) | relative viability (Gemcitabine + Linsitinib; first compound 0.01 µM) | relative viability (Gemcitabine + Linsitinib; first compound 0.03162 µM) | relative viability (Gemcitabine + Linsitinib; first compound 0.1 µM) |
| --- | --- | --- | --- | --- | --- | --- | --- | --- | --- | --- | --- | --- | --- | --- | --- | --- | --- | --- | --- | --- |
| NCI-H3122 | 1.02 | 1.03 | 0.912 | 0.253 | 0.196 | 0.1 | 0.0845 | 0.0643 | 0.0629 | 0.0705 | 0.94 | 0.959 | 0.89 | 0.123 | 0.0966 | 1.04 | 0.957 | 0.892 | 0.262 | 0.174 |
| PC-3 [JPC-3] | 0.81 | 0.688 | 0.504 | 0.448 | 0.281 | 0.79 | 0.685 | 0.415 | 0.349 | 0.314 | 1.15 | 0.847 | 0.605 | 0.28 | 0.228 | 1.03 | 0.77 | 0.692 | 0.342 | 0.309 |
| PC-14 | 0.986 | 0.813 | 0.619 | 0.035 | 0.0244 | 0.155 | 0.135 | 0.132 | 0.08 | 0.109 | 0.953 | 0.649 | 0.293 | 0.0827 | 0.0507 | 0.936 | 0.6 | 0.366 | 0.147 | 0.0669 |
| RERF-LC-KJ | 1.05 | 1.26 | 0.872 | 0.224 | 0.227 | 1.17 | 1.45 | 1.13 | 0.458 | 0.319 | 0.942 | 0.89 | 0.958 | 0.799 | 0.326 | 0.856 | 0.939 | 0.821 | 0.739 | 0.296 |
| SK-LU-1 | 0.526 | 0.224 | 0.0818 | 0.117 | 0.118 | 0.175 | 0.197 | 0.188 | 0.18 | 0.169 | 0.728 | 0.441 | 0.217 | 0.168 | 0.164 | 1.11 | 0.51 | 0.245 | 0.211 | 0.219 |
| SK-MES-1 | 0.929 | 0.723 | 0.158 | 0.0905 | 0.077 | 0.748 | 0.328 | 0.166 | 0.239 | 0.153 | 0.987 | 0.646 | 0.319 | 0.191 | 0.201 | 1.07 | 0.555 | 0.292 | 0.197 | 0.18 |
| SW 1573 | 1.18 | 0.986 | 0.0907 | 0.0747 | 0.0361 | 0.192 | 0.166 | 0.0849 | 0.154 | 0.112 | 1.03 | 0.776 | 0.32 | 0.131 | 0.0835 | 0.904 | 0.726 | 0.148 | 0.127 | 0.0847 |
| UMC-11 | 0.376 | 0.309 | 0.291 | 0.21 | 0.118 | 1.18 | 1.15 | 0.834 | 0.829 | 0.47 | 1.17 | 1.1 | 0.948 | 0.764 | 0.391 | 0.993 | 1.03 | 0.963 | 0.956 | 0.382 |
